# Read-outs that look alike come from different tables or passages of the source.
# Tests used:
# EGFR = EGFR (Homo sapiens, UniProt P00533, DEL746-750); experiment: Global label-free quantitative proteomics in HCC-827 cells; type: cell-based; conditions: HCC-827 cells starved 8 h; 100 nM for 16 h
# [1] = Mouse pharmacokinetic study; conditions: mice; single IP injection 50 mg/kg
# p-EGFR, p-AKT [2] = experiment: Western blotting of downstream signaling; type: cell-based
# p-EGFR, p-AKT [3] = experiment: Western blotting of downstream signaling; type: cell-based; remark: listed apart in the source
# in vivo = conditions: male, Swiss Albino, mouse, ip, 50 mg/kg
# WT EGFR [4] = target: T1, WT EGFR (Homo sapiens, UniProt P00533); experiment: Western blotting of WT EGFR protein in H1299 cells; type: cell-based; conditions: 8 h serum-free, 16 h treatment
# EGFR L858R [5] = target: T2, EGFR L858R (Homo sapiens, UniProt P00533, L858R); experiment: Western blotting of EGFR protein in H3255 cells; type: cell-based; conditions: for reversibility of EGFR degradation upon washout / maximum EGFR protein degradation / hook effect / effect on mutant EGFR protein level: H3255 cells; for reversibility of EGFR degradation upon washout: 12 h degrader treatment, then washout; for maximum EGFR protein degradation: at a concentration as low as 50 nM, 16 h; for hook effect: highest concentration 10 μM (PROTAC3: 1 and 10 μM); for effect on mutant EGFR protein level: 8 h serum-free, 16 h treatment, gefitinib at 1 μM
# [6] = target: EGFR e19d (EGFR mutant with exon 19 deletion) (Homo sapiens, UniProt P00533, DEL746-750); experiment: Western blotting of EGFR protein in HCC-827 cells; type: cell-based; conditions: for time after washout at which the EGFR protein level was recovered: 12 h degrader treatment, then washout; for maximum EGFR protein degradation: at a concentration as low as 50 nM, 16 h; for hook effect: highest concentration 10 μM (PROTAC3: 1 and 10 μM)
# H3255 cells = experiment: Cell proliferation assay; type: cell-based; conditions: 3 days
# WT EGFR [7] = target: T1, WT EGFR; experiment: Western blotting of WT EGFR protein in OVCAR-8 cells; type: cell-based; conditions: 8 h serum-free, 16 h treatment
# EGFR L858R [8] = target: T2, EGFR L858R; experiment: KINOMEscan competition binding assay, EGFR L858R; conditions: EGFR L858R mutant
# EGFR WT = EGFR WT (Homo sapiens, UniProt P00533); experiment: KINOMEscan competition binding assay, EGFR WT
# WT EGFR [9] = target: T1, WT EGFR; conditions: previous finding; cited from earlier work
# [10] = 100 nM, after 8 h serum starvation
# [11] = H3255 cells, 16 h treatment, gefitinib at 1 μM
# [12] = HCC-827 cells, 12 h degrader treatment, then washout
# [13] = HCC-827 cells, 16 h treatment, gefitinib at 1 μM
compound,measurement,setting,value
"COc1cc2ncnc(Nc3ccc(F)c(Cl)c3)c2cc1OCCCN1CCN(C(=O)CCCCCCCCCC(=O)N[C@H](C(=O)N2C[C@H](O)C[C@H]2C(=O)NCc2ccc(-c3scnc3C)cc2)C(C)(C)C)CC1 [Compound 6, (2S,4R)-1-((S)-2-(11-(4-(3-((4-((3-Chloro-4-fluorophenyl)amino)-7-methoxyquinazolin-6-yl)oxy)propyl)piperazin-1-yl)-11-oxounde-canamido)-3,3-dimethylbutanoyl)-4-hydroxy-N-(4-(4-methylthiazol-5-yl)benzyl)pyrrolidine-2-carboxamide]",EGFR protein degraded,EGFR,Over 75%
same,plasma concentration maintained over 8 h,[1],approximately 5 μM
same,tolerability,[1],"well tolerated, and no clinical signs were observed"
same,effect on AKT protein levels,"p-EGFR, p-AKT [2]",did not affect the AKT protein levels
same,inhibition of EGFR autophosphorylation (p-EGFR) and AKT phosphorylation (p-AKT),"p-EGFR, p-AKT [2]",potently inhibited
same,effect on AKT protein levels,"p-EGFR, p-AKT [3]",did not affect the AKT protein levels
same,inhibition of EGFR autophosphorylation (p-EGFR) and AKT phosphorylation (p-AKT),"p-EGFR, p-AKT [3]",potently inhibited
same,time after washout at which p-AKT was recovered,"p-EGFR, p-AKT [3]",48 h
same,time after washout at which p-EGFR was recovered,"p-EGFR, p-AKT [3]",24 h
same,treatment time at which robust inhibition of p-AKT was observed,"p-EGFR, p-AKT [3]",1 h
same,concentration at 24 h,in vivo,~1000 nM
same,effect on WT EGFR protein levels,WT EGFR [4],did not significantly reduce the WT EGFR protein levels
same,reversibility of EGFR degradation upon washout,EGFR L858R [5],reversible
same,maximum EGFR protein degradation,EGFR L858R [5],over 95%
same,hook effect,EGFR L858R [5],undetectable
same,treatment time to near-complete / maximum EGFR degradation,[6]; [10],around 12 h
same,time after washout at which the EGFR protein level was recovered,[6],24 h
same,maximum EGFR protein degradation,[6],over 95%
same,hook effect,[6],slight “hook effect”
same,cell growth inhibition,H3255 cells,effectively inhibited the growth of H3255 cells
same,potency at cell growth inhibition compared with PROTAC3,H3255 cells,more potent than the previously reported PROTAC3
same,potency at cell growth inhibition compared with gefitinib,H3255 cells,less potent
same,effect on WT EGFR protein levels,WT EGFR [7],did not significantly reduce the WT EGFR protein levels
same,weaker binding affinity compared to gefitinib,EGFR L858R [8],approximately 10 fold
same,weaker binding affinity compared to gefitinib,EGFR WT,approximately 10 fold
"COc1cc2ncnc(Nc3ccc(F)c(Cl)c3)c2cc1OCCCN1CCN(CCC(=O)NCCCCCCCCOc2cccc3c2C(=O)N(C2CCC(=O)NC2=O)C3=O)CC1 (centres unmarked) [Compound 10, 3-(4-(3-((4-((3-Chloro-4-fluorophenyl)amino)-7-methoxyquinazolin-6-yl)oxy)propyl)piperazin-1-yl)-N-(8-((2-(2,6-dioxopiperidin-3-yl)-1,3-dioxoisoindolin-4-yl)oxy)octyl)propanamide]",EGFR protein degraded,EGFR,Over 75%
same,highest plasma concentration,[1],approximately 500 nM
same,time post dosing of the highest plasma concentration,[1],8 h
same,tolerability,[1],"well tolerated, and no clinical signs were observed"
same,effect on AKT protein levels,"p-EGFR, p-AKT [2]; H3255 cells",did not affect the AKT protein levels
same,inhibition of EGFR autophosphorylation (p-EGFR) and AKT phosphorylation (p-AKT),"p-EGFR, p-AKT [2]; [11]",potently inhibited
same,effect on AKT protein levels,"p-EGFR, p-AKT [3]; HCC-827 cells",did not affect the AKT protein levels
same,time after washout at which p-AKT was recovered,"p-EGFR, p-AKT [3]; [12]",48 h
same,time after washout at which p-EGFR was recovered,"p-EGFR, p-AKT [3]; [12]",24 h
same,inhibition of EGFR autophosphorylation (p-EGFR) and AKT phosphorylation (p-AKT),"p-EGFR, p-AKT [3]; [13]",potently inhibited
same,effect on WT EGFR protein levels,WT EGFR [4],did not significantly reduce the WT EGFR protein levels
same,reversibility of EGFR degradation upon washout,EGFR L858R [5],reversible
same,maximum EGFR protein degradation,EGFR L858R [5],over 95%
same,hook effect,EGFR L858R [5],undetectable
same,time to reduce the half-maximum of the EGFR protein level,[6]; [10],3.5 h
same,treatment time to near-complete / maximum EGFR degradation,[6]; [10],12 h
same,time after washout at which the EGFR protein level was recovered,[6],24 h
same,maximum EGFR protein degradation,[6],over 95%
same,hook effect,[6],slight “hook effect”
same,cell growth inhibition,H3255 cells,inhibited the growth of H3255 cell
same,potency at cell growth inhibition compared with PROTAC3,H3255 cells,not as potent as compound 6 and PROTAC3
same,potency at cell growth inhibition compared with gefitinib,H3255 cells,less potent
same,effect on WT EGFR protein levels,WT EGFR [7],did not significantly reduce the WT EGFR protein levels
same,weaker binding affinity compared to gefitinib,EGFR L858R [8],5 fold
"COc1cc2ncnc(Nc3ccc(F)c(Cl)c3)c2cc1OCCCN1CCN(C(=O)CCCCCCCCCC(=O)N[C@H](C(=O)N2C[C@@H](O)C[C@@H]2C(=O)NCc2ccc(-c3scnc3C)cc2)C(C)(C)C)CC1 [Compound 27, (2R,4S)-1-((S)-2-(11-(4-(3-((4-((3-Chloro-4-fluorophenyl)amino)-7-methoxyquinazolin-6-yl)oxy)propyl)piperazin-1-yl)-11-oxoundecanamido)-3,3-dimethylbutanoyl)-4-hydroxy-N-(4-(4-methylthiazol-5-yl)benzyl)pyrrolidine-2-carboxamide]",inhibition of EGFR autophosphorylation (p-EGFR) and AKT phosphorylation (p-AKT),"p-EGFR, p-AKT [2]",lower potency
same,inhibition of EGFR autophosphorylation (p-EGFR) and AKT phosphorylation (p-AKT),"p-EGFR, p-AKT [3]",lower potency
same,effect of 2 h pretreatment on EGFR degradation induced by compound 6,EGFR L858R [5],blocked
same,effect on mutant EGFR protein level,EGFR L858R [5],did not significantly induce the degradation of EGFR mutants
"COc1cc2ncnc(Nc3ccc(F)c(Cl)c3)c2cc1OCCCN1CCN(CCC(=O)NCCCCCCCCOc2cccc3c2C(=O)N(C2CCC(=O)N(C)C2=O)C3=O)CC1 (centres unmarked) [Compound 28, 3-(4-(3-((4-((3-Chloro-4-fluorophenyl)amino)-7-methoxyquina-zolin-6-yl)oxy)propyl)piperazin-1-yl)-N-(8-((2-(1-methyl-2,6-dioxopiperidin-3-yl)-1,3-dioxoisoindolin-4-yl)oxy)octyl)propanamide]",inhibition of EGFR autophosphorylation (p-EGFR) and AKT phosphorylation (p-AKT),"p-EGFR, p-AKT [2]; [11]",lower potency
same,inhibition of EGFR autophosphorylation (p-EGFR) and AKT phosphorylation (p-AKT),"p-EGFR, p-AKT [3]; [13]",lower potency
same,effect on mutant EGFR protein level,EGFR L858R [5],did not significantly induce the degradation of EGFR mutants
"COc1cc2ncnc(Nc3ccc(F)c(Cl)c3)c2cc1OCCCCCOCCOCCC(=O)N[C@H](C(=O)N1C[C@H](O)C[C@H]1C(=O)NCc1ccc(-c2scnc2C)cc1)C(C)(C)C [PROTAC3, reference compound]",hook effect,EGFR L858R [5],much more significant hook effect
same,hook effect,[6],much more significant hook effect
same,potency at cell growth inhibition compared with gefitinib,H3255 cells,less potent
same,degradation of the WT EGFR,WT EGFR [9],did not degrade the WT EGFR
"Cc1ncsc1-c1ccc(CNC(=O)[C@@H]2C[C@@H](O)CN2C(=O)[C@@H](NC(=O)C2(C#N)CC2)C(C)(C)C)cc1 [VH-298, reference compound]",effect of 2 h pretreatment on EGFR degradation induced by compound 6,EGFR L858R [5],blocked
"O=C1CCC(N2C(=O)c3ccccc3C2=O)C(=O)N1 (centres unmarked) [thalidomide, reference compound]",effect of 2 h pretreatment on EGFR degradation induced by compound 10,EGFR L858R [5],blocked

# — article PMC7318554 (Journal of medicinal chemistry, 2020)
